Reference: patent US8361998B2, “Compounds and their use as IKACh blockers” (AstraZeneca AB, priority 2010, dated 2013)
Structures can show the parent of a compound that is named as a salt.

How the values were obtained:
[1] = tested on: anaesthetized rabbits subjected to vagal stimulation; assay: In vivo PD model, anaesthetized rabbits with vagal stimulation: right atrial effective refractory period (RAERP), QT; design: species or system rabbit
Procedure: Rabbits were anaesthetized using ketalar and domitor (2.5 and 0.07 mg/kg, respectively) as an i.v. bolus followed by a maintenance i.v. infusion (11 and 0.33 mg/kg/h, respectively) and ventilated with room air. Two percutaneous polyethylene catheter (Venflon 0.8 mm, Viggo, Helsingborg, Sweden) for administration of anaesthetics and drug infusions, respectively, were inserted into marginal veins on the right and left ear. A polyethylene catheter (Intramedic PE 160 Clay Adams, Becton Dickinson, Sparks, Md., USA) was inserted into the left carotid artery and advanced to the level of the aortic arch for blood pressure recording (by means of a pressure transducer, Peter von Berg Medizintechnik Gmbh, Kirchseeon/Englharting, Germany) and for blood sampling. For recording of right atrial electrogram and for atrial pacing, a 4F quadripolar electrophysiological recording catheters (Electrophysiology catheter-Deflectable tip, Biosense Webster Inc, Johnson & Johnson, Diamond Bar, Calif., USA) was advanced into the right jugular vein and positioned high up in the right atrium (HRA). Electrodes were advanced via introducers (4F Fast-Cath haemostasis introducer, ST. Jude Medical, DAIG Division, Inc. Minnetonka, Minn., USA) correctly positioned through fluoroscopic guidance. The effective refractory period in the right atrium (RAERP) was determined at a stimulation current strength approximately 20% above the threshold for pacing the atria. A custom-made PC-based (AstraZeneca R&D, Mölndal, Sweden) programmable stimulator and constant current pulse generator (WPI Stimulus Isolator, World Precision Instruments, Sarasota, Fla., USA) were used for stimulation at one or two predefined basic cycle lengths (S1) of for example 200 and 300 ms. A premature extra stimulus (S2) was introduced after every 10th paced basic beat with increments of 2 ms until capture. […] For vagal stimulation, both vagal nerves were ligated and cut in the cervical region and propranolol (0.5 mg/kg) was administrated as an i.v. infusion to decrease sympathetic influence. Electrodes were inserted in the middle of the right vagal nerve to stimulate the efferent vagi. The RAERP was determined without or with vagal stimulation at 50% of maximal vagal response. Subsequent infusion of compound aimed to increase the RAERP with 20 ms during the first dose of two consecutive doses. The drug infusion was followed by a washout period of approximately 30-60 min. QT prolongation was recorded from surface electrocardiography (ECG). The effect on RAERP was measured several times during infusion and washout and blood samples were taken at each measurements. Effect and plasma concentration data was analysed accounting for a concentration-effect-time delay and the unbound plasma concentration (Ceu) increasing the RAERP by 20 ms was calculated.

[2] = molecular target: T1, human ether-a-go-go-related gene (hERG)-encoded K+ channel (Homo sapiens, UniProt Q12809); assay: hERG inhibition, IonWorks HT, hERG-expressing CHO cells; format: cell-based
T1 construct: expressed in transfected cells; host or cells: Chinese hamster ovary K1 (CHO) cells
T1 sequence (Q12809 whole entry): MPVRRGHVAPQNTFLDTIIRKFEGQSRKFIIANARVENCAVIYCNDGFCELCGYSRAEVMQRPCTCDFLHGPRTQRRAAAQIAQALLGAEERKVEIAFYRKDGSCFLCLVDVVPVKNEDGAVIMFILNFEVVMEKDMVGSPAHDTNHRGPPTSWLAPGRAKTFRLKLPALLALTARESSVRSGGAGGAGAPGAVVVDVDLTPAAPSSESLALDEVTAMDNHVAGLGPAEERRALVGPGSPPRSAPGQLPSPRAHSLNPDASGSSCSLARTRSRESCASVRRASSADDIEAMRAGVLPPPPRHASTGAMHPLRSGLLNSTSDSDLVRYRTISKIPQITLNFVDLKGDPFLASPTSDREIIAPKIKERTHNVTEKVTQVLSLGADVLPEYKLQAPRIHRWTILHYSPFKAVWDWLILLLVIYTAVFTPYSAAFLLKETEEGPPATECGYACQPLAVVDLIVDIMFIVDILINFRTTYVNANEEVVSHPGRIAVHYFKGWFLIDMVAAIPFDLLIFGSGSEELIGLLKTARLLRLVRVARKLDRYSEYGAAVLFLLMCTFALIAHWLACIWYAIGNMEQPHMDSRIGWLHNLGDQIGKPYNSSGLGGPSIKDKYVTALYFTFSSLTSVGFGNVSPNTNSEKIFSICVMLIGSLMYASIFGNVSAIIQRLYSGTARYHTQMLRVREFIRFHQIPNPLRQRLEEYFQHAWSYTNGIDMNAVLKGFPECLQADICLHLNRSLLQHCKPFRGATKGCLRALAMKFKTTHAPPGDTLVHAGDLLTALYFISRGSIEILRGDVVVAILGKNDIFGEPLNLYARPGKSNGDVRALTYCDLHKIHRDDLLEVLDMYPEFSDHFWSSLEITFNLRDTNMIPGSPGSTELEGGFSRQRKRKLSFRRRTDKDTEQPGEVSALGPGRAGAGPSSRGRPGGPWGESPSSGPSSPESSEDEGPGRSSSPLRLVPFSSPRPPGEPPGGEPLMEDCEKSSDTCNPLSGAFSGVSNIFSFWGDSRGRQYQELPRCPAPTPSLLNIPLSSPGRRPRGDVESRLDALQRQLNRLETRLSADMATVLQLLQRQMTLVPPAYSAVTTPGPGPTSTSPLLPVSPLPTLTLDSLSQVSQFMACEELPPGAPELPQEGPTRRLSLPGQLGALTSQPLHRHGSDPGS
Procedure: Inhibition of the human ether-a-go-go-related gene (hERG)-encoded K^+ channel was determined using hERG-expressing Chinese hamster ovary K1 (CHO) cells on a IonWorks™ HT assay platform as described by M. H. Bridgland-Taylor et al. J. of Pharmacological and Toxicological Methods (2006); 54:189-199.

Compound	Ceu 20 ms [1] [µM]	IC50 [2] [µM]
CC(C)[C@@H](CN1CCCC1)N(C)C(=O)c1ccc(F)c(Cl)c1 [Example 16.55, (S)-3-Chloro-4-fluoro-N-methyl-N-(3-methyl-1-(pyrrolidin-1-yl)butan-2-yl)benzamide]	0.60	> 31
CC(C)[C@@H](CN1CCCC1)N(C)C(=O)c1ccc(Br)cc1 [Example 19, (S)-1-(2-(4-bromo-N-methylbenzamido)-3-methylbutyl)pyrrolidinium 3-carboxy-2,3-dihydroxypropanoate]	0.34	17
CCC[C@@H](CN1CC(O)C1)N(C)C(=O)c1ccc(F)cc1 [Example 8.6, (S)-4-Fluoro-N-(1-(3-hydroxyazetidin-1-yl)pentan-2-yl)-N-methylbenzamide]	2.50	> 33
Cc1cc(C(=O)N(C)[C@H](CN2CC(O)C2)C(C)C)ccc1F [Example 6.1, (S)-4-Fluoro-N-(1-(3-hydroxyazetidin-1-yl)-3-methylbutan-2-yl)-N,3-dimethylbenzamide]	0.54	> 100
Cc1cccc(C(=O)N(C)[C@H](CN2CCCC2)C(C)C)c1 [Example 12.2, (S)-1-(2-(N,3-Dimethylbenzamido)-3-methylbutyl)pyrrolidinium 2,3-dihydroxysuccinate]	2.20	> 33
CN(C(=O)c1ccc(Cl)cc1)[C@H](CN1CC(O)C1)C1CC1 [Example 7.2, (S)-4-Chloro-N-(1-cyclopropyl-2-(3-hydroxyazetidin-1-yl)ethyl)-N-methylbenzamide]	1.00	> 33
CC[C@H](C)[C@@H](CN1CC(O)C1)N(C)C(=O)c1ccc(C#N)cc1F [Example 29.7, 4-Cyano-2-fluoro-N-((2S,3S)-1-(3-hydroxyazetidin-1-yl)-3-methylpentan-2-yl)-N-methylbenzamide]	0.79	> 33
Cc1cc(C(=O)N(C)[C@H](CN2CC(O)C2)C2CC2)ccc1F [Example 7.1, (S)—N-(1-Cyclopropyl-2-(3-hydroxyazetidin-1-yl)ethyl)-4-fluoro-N,3-dimethylbenzamide]	5.40	> 33
Cc1cc(C(=O)N(C)[C@H](CN2CC(O)C2)C2CCC2)ccc1F [Example 39.16, (S)—N-(1-Cyclobutyl-2-(3-hydroxyazetidin-1-yl)ethyl)-4-fluoro-N,3-dimethylbenzamide]	0.24	> 33
CCCC[C@@H](CN1CC(O)C1)N(C)C(=O)c1ccc(C#N)cc1 [Example 33.4, 4-Cyano-N-[(2S)-1-(3-hydroxyazetidin-1-yl)hexan-2-yl]-N-methylbenzamide]	0.52	18
CC(C)C[C@@H](CN1CC(O)C1)N(C)C(=O)c1ccc(C#N)cc1F [Example 38.6, 4-Cyano-2-fluoro-N-[(2S)-1-(3-hydroxyazetidin-1-yl)-4-methylpentan-2-yl]-N-methylbenzamide]	0.72	> 33
CCC[C@@H](CN1CC(O)C1)N(C)C(=O)c1ccc(Cl)cc1 [Example 8.2, (S)-4-Chloro-N-(1-(3-hydroxyazetidin-1-yl)pentan-2-yl)-N-methyl-benzamide, hydrochloride]	0.34	> 57
CC(C)[C@@H](CN1CC[C@H](O)C1)N(C)C(=O)c1ccc(Cl)cc1 [Example 10.2, 4-Chloro-N-((S)-1-((S)-3-hydroxypyrrolidin-1-yl)-3-methylbutan-2-yl)-N-methylbenzamide hemi tartrate]	1.40	> 33
CN(C(=O)c1ccc(Br)cc1)[C@H](CN1CC(O)C1)C1CC1 [Example 4.4, (S)-4-Bromo-N-(1-cyclopropyl-2-(3-hydroxyazetidin-1-yl)ethyl)-N-methylbenzamide]	0.75	> 33
CC(C)[C@@H](CN1CC(O)C1)N(C)C(=O)c1ccc(Cl)cc1 [Example 6.2, (S)-4-Chloro-N-(1-(3-hydroxyazetidin-1-yl)-3-methylbutan-2-yl)-N-methylbenzamide]	0.40	> 53
Cc1cc(C(=O)N(C)[C@H](CN2CCCC2)C(C)C)ccc1F [Example 12.1, (S)-4-Fluoro-N,3-dimethyl-N-(3-methyl-1-(pyrrolidin-1-yl)butan-2-yl)benzamide-dihydroxysuccinate]	0.68	> 100

Compound	Ceu 20 ms [1] [µM]	IC50 [2] [µM]
CN(C(=O)c1ccc(F)c(Cl)c1)[C@H](CN1CC(O)C1)C1CC1 [Example 7.3, (S)-3-Chloro-N-(1-cyclopropyl-2-(3-hydroxyazetidin-1-yl)ethyl)-4-fluoro-N-methylbenzamide]	2.10	> 33
CN(C(=O)c1ccc(C#N)cc1)[C@H](CN1CC(O)C1)C1CCC1 [Example 39.2, (S)-4-Cyano-N-(1-cyclobutyl-2-(3-hydroxyazetidin-1-yl)ethyl)-N-methylbenzamide]	0.28	80
CC(C)[C@@H](CN1CCC1)N(C)C(=O)c1ccc(Br)cc1.O=C(O)CCC(=O)O [Example 5.2]	0.60	34
CC(C)[C@@H](CN1CCCC1)N(C)C(=O)c1ccc(Cl)cc1 [Example 18, (S)-1-(2-(4-Chloro-N-methylbenzamido)-3-methylbutyl)pyrrolidinium chloride]	0.70	> 30
CN(C(=O)c1ccc(Cl)cc1)[C@H](CN1CC(O)C1)C1CCC1 [Example 39.14, (S)-4-Chloro-N-(1-cyclobutyl-2-(3-hydroxyazetidin-1-yl)ethyl)-N-methylbenzamide]	0.10	> 33
CC(C)[C@@H](CN1CCC1)N(C)C(=O)c1ccc(Cl)cc1 [Example 5.1, (S)-N-(1-(Azetidin-1-yl)-3-methylbutan-2-yl)-4-chloro-N-methylbenzamide]	1.00	76
CC(C)C[C@@H](CN1CC(O)C1)N(C)C(=O)c1ccc(F)c(F)c1 [Example 38.1, 3,4-Difluoro-N-[(2S)-1-(3-hydroxyazetidin-1-yl)-4-methylpentan-2-yl]-N-methylbenzamide]	0.34	> 33
CCC[C@@H](CN1CC(O)C1)N(C)C(=O)c1ccc(F)c(F)c1 [Example 8.1, (S)-3,4-Difluoro-N-(1-(3-hydroxyazetidin-1-yl)pentan-2-yl)-N-methylbenzamide]	0.87	> 100
CCC[C@@H](CN1CCC1)N(C)C(=O)c1ccc(Cl)cc1 [Example 1.2, (S)-N-(1-(Azetidin-1-yl)pentan-2-yl)-4-chloro-N-methylbenzamide]	0.40	20
CC(C)[C@@H](CN1CCCC1)N(C)C(=O)c1ccc(F)cc1Cl [Example 1.17, (S)-2-Chloro-4-fluoro-N-methyl-N-(3-methyl-1-(pyrrolidin-1-yl)butan-2-yl)benzamide]	1.40	> 100
CCCC[C@@H](CN1CC(O)C1)N(C)C(=O)c1ccc(F)cc1 [Example 33.7, 4-Fluoro-N-[(2S)-1-(3-hydroxyazetidin-1-yl)hexan-2-yl]-N-methylbenzamide]	0.80	79
Cc1cc(C(=O)N(C)[C@H](CN2CCC2)C2CC2)ccc1F [Example 4.1, (S)—N-(2-(Azetidin-1-yl)-1-cyclopropylethyl)-4-fluoro-N,3-dimethylbenzamide]	0.74	> 33
CC(C)C[C@@H](CN1CC(O)C1)N(C)C(=O)c1ccc(Cl)cc1 [Example 38.2, 4-Chloro-N-[(2S)-1-(3-hydroxyazetidin-1-yl)-4-methylpentan-2-yl]-N-methylbenzamide]	0.38	> 33
CCC[C@@H](CN1CCC1)N(C)C(=O)c1ccc(F)c(C)c1 [Example 1.4, (S)-N-(1-(Azetidin-1-yl)pentan-2-yl)-4-fluoro-N,3-dimethyl-benzamide]	0.60	> 33
CC[C@@H](CN1CC(O)C1)N(C)C(=O)c1ccc(Cl)cc1 [Example 39.12, (S)-4-Chloro-N-(1-(3-hydroxyazetidin-1-yl)butan-2-yl)-N-methylbenzamide]	2.06	> 33
